Results: paper PMC12567244, “Innovative Amino-Functionalization of Pyrido[2,3-d]pyrimidine Scaffolds for Broad Therapeutic Applications Supported by Computational Analyses” (Pharmaceuticals, 2025)
“And” between values parts separate entries of the source, which are not always exact repeats. Equal values may be shown once.

Columns and labels:
E.coli ATCC25915 = test: Well diffusion inhibition zone, E. coli; details: Escherichia coli, ATCC25915, read-out: Inhibition zone E.coli ATCC25915
S. aureus ATCC25923 = test: Well diffusion inhibition zone, S. aureus; details: Staphylococcus aureus, ATCC25923, read-out: Inhibition zone S. aureus ATCC25923
E. faecalis ATCC29212 = test: Well diffusion inhibition zone, E. faecalis; details: Enterococcus faecalis, ATCC29212, read-out: Inhibition zone E. faecalis ATCC29212
P. aeruginosa ATCC10145 = test: Well diffusion inhibition zone, P. aeruginosa; details: Pseudomonas aeruginosa, ATCC10145, read-out: Inhibition zone P. aeruginosa ATCC10145
in vitro = details: human, WI-38 normal lung fibroblast cells
[1] = tested on: cervical carcinoma (HeLa); test: MTT cytotoxicity assay, HeLa; details: for SI HeLa: IC50 WI-38 / IC50 HeLa; for IC50: read-out: IC50 HeLa, MTT, mean ± SD of three measurements
breast carcinoma (MCF-7) = test: MTT cytotoxicity assay, MCF-7; details: for SI MCF-7: IC50 WI-38 / IC50 MCF-7; for IC50: read-out: IC50 MCF-7, MTT, mean ± SD of three measurements
liver carcinoma (HepG-2) = test: MTT cytotoxicity assay, HepG-2; details: for SI HepG-2: IC50 WI-38 / IC50 HepG-2; for IC50: read-out: IC50 HepG-2, MTT, mean ± SD of three measurements
HeLa, HepG-2, and MCF-7 = test: MTT cytotoxicity, range over the cancer cell panel; details: read-out: IC50 across HeLa, HepG-2 and MCF-7; range over all examined cancer cell lines

| Compound | IC50 at 48 h (in vitro) [µM] | zone of inhibition at 50 µg/mL (E.coli ATCC25915) [mm] | zone of inhibition at 50 µg/mL (S. aureus ATCC25923) [mm] | zone of inhibition at 50 µg/mL (E. faecalis ATCC29212) [mm] | zone of inhibition at 50 µg/mL (P. aeruginosa ATCC10145) [mm] | SI HeLa [1] | IC50 [1] [µM] | SI MCF-7 (breast carcinoma (MCF-7)) | IC50 (breast carcinoma (MCF-7)) [µM] | SI HepG-2 (liver carcinoma (HepG-2)) | IC50 (liver carcinoma (HepG-2)) [µM] | IC50 (HeLa, HepG-2, and MCF-7) | zone of inhibition at 100 µg/mL (P. aeruginosa ATCC10145) [mm] | zone of inhibition at 100 µg/mL (E.coli ATCC25915) [mm] | zone of inhibition at 100 µg/mL (S. aureus ATCC25923) [mm] |
| --- | --- | --- | --- | --- | --- | --- | --- | --- | --- | --- | --- | --- | --- | --- | --- |
| O=C(O)c1cn(C2CC2)c2cc(N3CCNCC3)c(F)cc2c1=O [Ciprofloxacin, reference compound] | – | 10 | 8 ± 0.15 | 7.5 | 12.3 ± 0.4 | – | – | – | – | – | – | – | – | – | – |
| Cn1c(=O)c2c(-c3ccc(Cl)cc3)c(C(=O)Nc3n[nH]cc3NN)c(N)nc2n(C)c1=O [Compound 3, 7-Amino-5-(4-chlorophenyl)-N-(4-hydrazinyl-1H-pyrazol-3-yl)-1,3-dimethyl-2,4-dioxo-1,2,3,4-tetrahydropyrido[2,3-d]pyrimidine-6-carboxamide] | 52.8 ± 2.9 | – | – | – | – | 3.73 | 14.1 ± 1.2 | 2.70 | 19.5 ± 1.3 | 2.46 | 21.4 ± 1.5 | 14 to 26 µM | – | – | – |
| Cn1c(=O)c2c(-c3ccc(Cl)cc3)c(-c3nnc(S)n3N)c(N)nc2n(C)c1=O [Compound 4, 7-Amino-6-(4-amino-5-mercapto-4H-1,2,4-triazol-3-yl)-5-(4-chlorophenyl)-1,3-dimethylpyrido[2,3-d]pyrimidine-2,4(1H,3H)-dione] | 46.1 ± 2.7 | – | – | – | – | 2.43 | 18.9 ± 1.4 | 1.76 | 26.1 ± 1.7 | 1.99 | 23.1 ± 1.6 | 14 to 26 µM | 6 | – | – |
| Cn1c(=O)c2c(-c3ccc(Cl)cc3)c(C(=O)NC(=S)NN)c(N)nc2n(C)c1=O [Compound 5, 7-Amino-5-(4-chlorophenyl)-N-(hydrazinecarbonothioyl)-1,3-dimethyl-2,4-dioxo-1,2,3,4-tetrahydropyrido[2,3-d]pyrimidine-6-carboxamide] | 35.2 ± 2.2 | – | – | – | – | 0.39 | 89.4 ± 4.6 | 0.41 | 84.1 ± 4.2 | – | > 100 | > 84 µM | – | – | – |
| Cc1cc(C)n(C(=O)c2c(N)nc3c(c2-c2ccc(Cl)cc2)c(=O)n(C)c(=O)n3C)n1 [Compound 6, 7-Amino-5-(4-chlorophenyl)-6-(3,5-dimethyl-1H-pyrazole-1-carbonyl)-1,3-dimethylpyrido[2,3-d]pyrimidine-2,4(1H,3H)-dione] | 38.4 ± 2.6 | – | – | – | – | 1.54 | 24.8 ± 1.6 | 1.20 | 32 ± 1.9 | 1.29 | 29.7 ± 1.8 | 24 to 32 µM | – | – | – |
| Cn1c(=O)c2c(-c3ccc(Cl)cc3)c(-c3nnc(S)o3)c(N)nc2n(C)c1=O [Compound 7, 7-Amino-5-(4-chlorophenyl)-6-(5-mercapto-1,3,4-oxadiazol-2-yl)-1,3-dimethylpyrido[2,3-d]pyrimidine-2,4(1H,3H)-dione] | 26.8 ± 1.8 | – | – | – | – | 2.75 | 9.72 ± 0.9 | 2.30 | 11.6 ± 0.9 | 1.52 | 17.5 ± 1.3 | 9.72 to 17.5 µM | – | – | – |
| Cn1c(=O)c2c(-c3ccc(Cl)cc3)c(C3=NN=C(N)C3C#N)c(N)nc2n(C)c1=O (stereo not drawn) [Compound 8, 3-Amino-5-[7-amino-5-(4-chlorophenyl)-1,3-dimethyl-2,4-dioxo-1,2,3,4-tetrahydropyrido[2,3-d]pyrimidin-6-yl]-4H-pyrazole-4-carbonitrile] | 25.2 ± 1.8 | – | – | – | – | 0.35 | 71.4 ± 3.8 | 0.31 | 79.3 ± 3.9 | 0.30 | 82.8 ± 4.1 | > 50 µM and 62 to 88 µM | – | – | – |
| Cn1c(=O)c2c(-c3ccc(Cl)cc3)c(-c3nn(CCC#N)c(=S)o3)c(N)nc2n(C)c1=O [Compound 9, 3-{5-[7-Amino-5-(4-chlorophenyl)-1,3-dimethyl-2,4-dioxo-1,2,3,4-tetrahydropyrido [2,3-d]pyrimidin-6-yl]-2-thioxo-1,3,4-oxadiazol-3(2H)-yl}propanenitrile] | > 100 | – | – | – | – | – | 62.7 ± 3.5 | – | 67.8 ± 3.6 | – | 88.6 ± 4.4 | > 50 µM and 62 to 88 µM | 7.6 | – | – |
| C#Cc1cccc(Nc2ncnc3cc(OCCOC)c(OCCOC)cc23)c1 [Erlotinib, erlotinib, reference compound] | 78.3 ± 3.9 | – | – | – | – | – | 8.04 ± 0.5 | – | 7.26 ± 0.3 | – | 9.18 ± 0.6 | – | – | – | – |

More lines, main results first:

| IC50 at 48 h (in vitro) [µM] | Compound | zone of inhibition at 50 µg/mL (E.coli ATCC25915) [mm] | zone of inhibition at 50 µg/mL (S. aureus ATCC25923) [mm] | zone of inhibition at 50 µg/mL (E. faecalis ATCC29212) [mm] | zone of inhibition at 50 µg/mL (P. aeruginosa ATCC10145) [mm] | SI HeLa [1] | IC50 [1] [µM] | SI MCF-7 (breast carcinoma (MCF-7)) | IC50 (breast carcinoma (MCF-7)) [µM] | SI HepG-2 (liver carcinoma (HepG-2)) | IC50 (liver carcinoma (HepG-2)) [µM] | IC50 (HeLa, HepG-2, and MCF-7) | zone of inhibition at 100 µg/mL (P. aeruginosa ATCC10145) [mm] | zone of inhibition at 100 µg/mL (E.coli ATCC25915) [mm] | zone of inhibition at 100 µg/mL (S. aureus ATCC25923) [mm] |
| --- | --- | --- | --- | --- | --- | --- | --- | --- | --- | --- | --- | --- | --- | --- | --- |
| 37.9 ± 2.4 | Cn1c(=O)c2c(-c3ccc(Cl)cc3)c(-c3nn(CCc4nn[nH]n4)c(=S)o3)c(N)nc2n(C)c1=O [Compound 10, 6-{4-[2-(2H-Tetrazol-5-yl)ethyl]-5-thioxo-4,5-dihydro-1,3,4-oxadiazol-2-yl}-7-amino-5-(4-chlorophenyl)-1,3-dimethylpyrido[2,3-d]pyrimidine-2,4(1H,3H)-dione] | – | – | – | – | 0.77 | 48.7 ± 2.8 | 0.71 | 53.1 ± 3.1 | 0.54 | 69.4 ± 3.7 | > 50 µM | 6 | – | – |
| > 100 | Cn1c(=O)c2c(-c3ccc(Cl)cc3)c(C3=NN=C4N=CNC(=O)C43)c(N)nc2n(C)c1=O (stereo not drawn) [Compound 11, 7-Amino-5-(4-chlorophenyl)-1,3-dimethyl-6-(4-oxo-3a,5-dihydro-4H-pyrazolo [3,4-d]pyrimidin-3-yl)pyrido[2,3-d]pyrimidine-2,4(1H,3H)-dione] | – | – | – | – | – | 56.4 ± 3.2 | – | 60.6 ± 3.5 | – | 73.2 ± 3.8 | > 50 µM | 8.6 | 2 ± 0.1 | – |
| 22.5 ± 1.6 | Cn1c(=O)c2c(-c3ccc(Cl)cc3)c(-c3nnc4n3N=C(Cl)CS4)c(N)nc2n(C)c1=O [Compound 14, 7-Amino-6-(6-chloro-7H-[1,2,4]triazolo [3,4-b][1,3,4]thiadiazin-3-yl)-5-(4-chlorophenyl)-1,3-dimethylpyrido[2,3-d]pyrimidine-2,4(1H,3H)-dione] | – | – | – | – | 0.32 | 68.7 ± 3.6 | 0.29 | 75.1 ± 3.8 | 0.23 | 93.7 ± 4.8 | > 50 µM and 69 to 94 µM | 9.5 | 8.15 ± 0.3 | 3 ± 0.05 |
| 41.2 ± 2.5 | Cn1c(=O)c2c(-c3ccc(Cl)cc3)c(-c3nnc4sc(S)nn34)c(N)nc2n(C)c1=O [Compound 15, 7-Amino-5-(4-chlorophenyl)-6-(6-mercapto-[1,2,4]triazolo[3,4-b][1,3,4]thiadiazol-3-yl)-1,3-dimethylpyrido[2,3-d]pyrimidine-2,4(1H,3H)-dione] | – | – | – | – | 1.03 | 39.8 ± 2.4 | 0.86 | 47.5 ± 2.8 | 0.79 | 51.8 ± 2.9 | 40 to 52 µM | 10.3 | 7.5 ± 0.15 | – |
